The values below come from US10435399B2, “HDAC6 inhibitory heterocyclic compound” (TAKEDA PHARMACEUTICAL COMPANY LIMITED, priority 2017, dated 2019).

The structures appear in SMILES notation.

In the first experiment the target is T1, HDAC6 enzyme (Homo sapiens, UniProt Q9UBN7).
T1 construct: transducing full length HDAC6 gene into Sf-9 insect cells; GST; purchased SignalChem; host or cells: Sf-9 insect cells
T1 sequence (Q9UBN7 1-1215): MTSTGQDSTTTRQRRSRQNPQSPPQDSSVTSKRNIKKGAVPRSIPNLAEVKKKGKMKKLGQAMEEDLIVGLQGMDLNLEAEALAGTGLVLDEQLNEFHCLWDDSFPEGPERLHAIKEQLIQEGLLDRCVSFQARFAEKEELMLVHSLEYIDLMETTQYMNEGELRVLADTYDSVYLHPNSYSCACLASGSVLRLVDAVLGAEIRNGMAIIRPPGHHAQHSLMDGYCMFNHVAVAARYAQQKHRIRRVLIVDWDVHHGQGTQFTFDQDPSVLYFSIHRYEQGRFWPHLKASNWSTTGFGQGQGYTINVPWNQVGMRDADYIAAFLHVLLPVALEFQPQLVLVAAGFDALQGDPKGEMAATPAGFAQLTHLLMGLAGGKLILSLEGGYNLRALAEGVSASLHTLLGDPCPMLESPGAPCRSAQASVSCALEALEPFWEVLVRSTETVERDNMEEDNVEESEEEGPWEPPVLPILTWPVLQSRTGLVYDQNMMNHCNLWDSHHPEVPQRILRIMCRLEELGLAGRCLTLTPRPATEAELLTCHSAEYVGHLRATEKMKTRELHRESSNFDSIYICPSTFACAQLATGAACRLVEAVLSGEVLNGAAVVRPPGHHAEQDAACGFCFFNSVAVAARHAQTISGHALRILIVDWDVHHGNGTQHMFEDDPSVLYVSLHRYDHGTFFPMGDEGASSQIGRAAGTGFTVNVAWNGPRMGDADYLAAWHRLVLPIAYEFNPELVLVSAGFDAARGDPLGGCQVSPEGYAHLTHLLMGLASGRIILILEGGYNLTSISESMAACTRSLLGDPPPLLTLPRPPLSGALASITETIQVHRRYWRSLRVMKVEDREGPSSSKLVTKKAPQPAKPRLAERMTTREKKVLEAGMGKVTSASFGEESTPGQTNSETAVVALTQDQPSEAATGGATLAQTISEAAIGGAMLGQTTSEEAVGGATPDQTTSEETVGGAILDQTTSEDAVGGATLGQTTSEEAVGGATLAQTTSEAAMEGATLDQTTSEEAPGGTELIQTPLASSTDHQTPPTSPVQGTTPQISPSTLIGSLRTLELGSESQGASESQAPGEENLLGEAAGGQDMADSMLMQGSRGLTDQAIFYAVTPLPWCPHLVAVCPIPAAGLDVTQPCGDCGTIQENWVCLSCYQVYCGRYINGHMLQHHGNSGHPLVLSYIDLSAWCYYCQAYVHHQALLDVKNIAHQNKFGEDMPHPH
In words: HDAC6 enzyme inhibitory activity (HDAC-Glo I/II Assay kit). The experiment is classed as biochemical. Conditions: 10 μM; wells without enzyme = 100% inhibition. An outline of the steps:
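Test compound is preincubated 60 min at RT with full-length insect-cell HDAC6 in Tris-HCl pH 7.5 with 135 mM NaCl and 1 mM MgCl2. A 20 min room-temperature HDAC-Glo reaction follows, with luminescent read-out.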
Turning to `O=C1c2cc(-c3nnc(C(F)F)o3)ccc2CN1[C@@H]1CCN(C(=O)C2(C(F)(F)F)CC2)C[C@H]1c1ccc(F)cc1` [Example 508, 6-(5-(difluoro-methyl)-1,3,4-oxadiazol-2-yl)-2-((3R,4R)-3-(4-fluorophenyl)-1-((1-(trifluoro-methyl)cyclo-propyl)carbonyl)pipeiridin-4-yl) isoindolin-1-one], the “HDAC6 inhibitory rate (%) (10 μM)” value was found to be 100%.

Staying with this experiment, now noted: 10 μM; wells without enzyme = 100% inhibition; read-out: HDAC6 inhibitory rate (%) (10 μM).
Consider `O=C1c2cc(-c3nnc(C(F)F)o3)ccc2CN1c1ccc(F)cc1-n1cc(C2CC2)cn1` [Example 486, 2-(2-(4-cyclo-propyl-1H-pyrazol-1-yl)-4-fluorophenyl)-6-(5-(difluoro-methyl)-1,3,4-oxadiazol-2-yl) isoindolin-1-one], for which the inhibition at 10 µM is 100%.
On the same count and under the same terms, the result for `O=C1c2cc(-c3nnc(C(F)F)o3)ccc2CN1c1ccccc1Cc1ccccc1` [Example 487, 2-(2-benzyl-phenyl)-6-(5-(difluoro-methyl)-1,3,4-oxadiazol-2-yl) isoindolin-1-one] reads 99%.
`CCc1cnn(-c2cc(F)ccc2N2Cc3ccc(-c4nnc(C(F)F)o4)cc3C2=O)c1` [Example 488, 6-(5-(difluoro-methyl)-1,3,4-oxadiazol-2-yl)-2-(2-(4-ethyl-1H-pyrazol-1-yl)-4-fluoro-phenyl) isoindolin-1-one]: the inhibition at 10 µM came to 100%.
In the case of `O=C1c2cc(-c3nnc(C(F)F)o3)ccc2CN1N1CCCCC1c1ccccc1` (stereo not shown) [Example 490, 6-(5-(difluoro-methyl)-1,3,4-oxadiazol-2-yl)-2-(2-phenyl-piperidin-1-yl) isoindolin-1-one], the inhibition at 10 µM was 98%.
Consider `O=C1c2cc(-c3nnc(C(F)F)o3)ccc2CN1N1CCCC1c1ccccc1` (stereo not shown) [Example 491, 6-(5-(difluoro-methyl)-1,3,4-oxadiazol-2-yl)-2-(2-phenyl-pyrrolidin-1-yl) isoindolin-1-one], for which the inhibition at 10 µM came to 99%.
Consider `Cn1cc(N2Cc3ccc(-c4nnc(C(F)F)o4)cc3C2=O)c(Br)n1` [Example 492, 2-(3-bromo-1-methyl-1H-pyrazol-4-yl)-6-(5-(difluoro-methyl)-1,3,4-oxadiazol-2-yl) isoindolin-1-one], for which the inhibition at 10 µM stood at 91%.
Same read-out and setting: the result for `Cn1cc(N2Cc3ccc(-c4nnc(C(F)F)o4)cc3C2=O)c(-c2ccccc2)n1` [Example 493, 6-(5-(difluoro-methyl)-1,3,4-oxadiazol-2-yl)-2-(1-methyl-3-phenyl-1H-pyrazol-4-yl) isoindolin-1-one] reads 99%; that for `COC(=O)N1CC[C@@H](N2Cc3ncc(-c4nnc(C(F)F)o4)cc3C2=O)[C@H](c2ccc(F)cc2)C1` [Example 494, methyl (3R,4R)-4-(3-(5-(difluoro-methyl)-1,3,4-oxadiazol-2-yl)-5-oxo-5,7-dihydro-6H-pyrrolo[3,4-b]pyridin-6-yl)-3-(4-fluoro-phenyl) piperidine-1-carboxylate], 100%.
Turning to `N[C@@H]1CCCC(F)(F)[C@H]1N1Cc2ncc(-c3nnc(C(F)F)o3)cc2C1=O` [Example 495, 6-((1S,6R)-6-amino-2,2-difluorocyclo-hexyl)-3-(5-(difluoro-methyl)-1,3,4-oxadiazol-2-yl)-6,7-dihydro-5H-pyrrolo [3,4-b] pyridin-5-one], the inhibition at 10 µM came to 89%.
Turning to `CC(C)(C)OC(=O)N[C@@H]1CCCC(F)(F)[C@H]1N1Cc2ncc(-c3nnc(C(F)F)o3)cc2C1=O` [Example 496, tert-butyl ((1R,2S)-2-(3-(5-(difluoro-methyl)-1,3,4-oxadiazol-2-yl)-5-oxo-5,7-dihydro-6H-pyrrolo[3,4-b]pyridin-6-yl)-3,3-difluoro-cyclohexyl) carbamate], the inhibition at 10 µM was 100%.
Same read-out and setting: as for `O=C1c2cc(-c3nnc(C(F)F)o3)cnc2CN1[C@H]1[C@H](NC(=O)C(F)(F)C(F)(F)F)CCCC1(F)F` [Example 497, N-((1R,2S)-2-(3-(5-(difluoro-methyl)-1,3,4-oxadiazol-2-yl)-5-oxo-5,7-dihydro-6H-pyrrolo[3,4-b]pyridin-6-yl)-3,3-difluoro-cyclohexyl)-2,2,3,3,3-pentafluoro-propanamide], the figure is 101%.
Consider `O=C(C1CC1)N1CC[C@@H](N2Cc3ncc(-c4nnc(C(F)F)o4)cc3C2=O)[C@H](c2ccc(F)cc2)C1` [Example 498, 6-((3R,4R)-1-(cyclopropyl-carbonyl)-3-(4-fluorophenyl)piperidin-4-yl)-3-(5-(difluoro-methyl)-1,3,4-oxadiazol-2-yl)-6,7-dihydro-5H-pyrrolo [3,4-b]pyridin-5-one], for which the inhibition at 10 µM turned out to be 100%.
`COC(=O)N1CC[C@@H](N2Cc3ncc(-c4nnc(C(F)F)o4)cc3C2=O)[C@H](c2ccc(F)c(F)c2)C1` [Example 499, methyl (3R,4R)-4-(3-(5-(difluoro-methyl)-1,3,4-oxadiazol-2-yl)-5-oxo-5,7-dihydro-6H-pyrrolo[3,4-b]pyridin-6-yl)-3-(3,4-difluoro-phenyl) piperidine-1-carboxylate]: the inhibition at 10 µM came to 99%.
Still for that read-out and setting: as for `CC(F)(F)C(=O)N[C@@H]1CCCC(F)(F)[C@H]1N1Cc2ncc(-c3nnc(C(F)F)o3)cc2C1=O` [Example 500, N-((1R,2S)-2-(3-(5-(difluoro-methyl)-1,3,4-oxadiazol-2-yl)-5-oxo-5,7-dihydro-6H-pyrrolo[3,4-b]pyridin-6-yl)-3,3-difluoro-cyclohexyl)-2,2-difluoro-propanamide], the figure is 99%; as for `O=C1c2cc(-c3nnc(C(F)F)o3)ccc2CN1N1CCOCC1c1ccccc1` (stereo not shown) [Example 501, 6-(5-(difluoro-methyl)-1,3,4-oxadiazol-2-yl)-2-(3-phenyl-morpholin-4-yl) isoindolin-1-one], 98%.
For `O=C1c2cc(-c3nnc(C(F)F)o3)cnc2CN1[C@@H]1CCCC[C@H]1n1cnc2ccccc21` [Example 502, 6-((1R,2R)-2-(1H-benzimidazol-1-yl)cyclohexyl)-3-(5-(difluoromethyl)-1,3,4-oxadiazol-2-yl)-6,7-dihydro-5H-pyrrolo[3,4-b]pyridin-5-one], the inhibition at 10 µM amounted to 100%.
Take `Cc1nc2ccccc2n1[C@@H]1CCCC[C@H]1N1Cc2ncc(-c3nnc(C(F)F)o3)cc2C1=O` [Example 503, 3-(5-(difluoromethyl)-1,3,4-oxadiazol-2-yl)-6-((1R,2R)-2-(2-methyl-1H-benzimidazol-1-yl)cyclohexyl)-6,7-dihydro-5H-pyrrolo[3,4-b]pyridin-5-one]: the inhibition at 10 µM worked out at 99%.
As for `COC(=O)N1CC[C@@H](N2Cc3ccc(-c4nnc(C(F)F)o4)cc3C2=O)[C@H](c2ccc(F)cc2)C1` [Example 505, methyl (3R,4R)-4-(6-(5-(difluoro-methyl)-1,3,4-oxadiazol-2-yl)-1-oxo-1,3-dihydro-2H-isoindol-2-yl)-3-(4-fluoro-phenyl) piperidine-1-carboxylate], the inhibition at 10 µM was 100%.
With `CC(F)(F)C(=O)N1CC[C@@H](N2Cc3ccc(-c4nnc(C(F)F)o4)cc3C2=O)[C@H](c2ccc(F)cc2)C1` [Example 506, 6-(5-(difluoro-methyl)-1,3,4-oxadiazol-2-yl)-2-((3R,4R)-1-(2,2-difluoro-propanoyl)-3-(4-fluorophenyl)piperidin-4-yl) isoindolin-1-one], the inhibition at 10 µM was found to be 99%.
Regarding `O=C1c2cc(-c3nnc(C(F)F)o3)ccc2CN1[C@@H]1CCN(C(=O)C2(F)CC2)C[C@H]1c1ccc(F)cc1` [Example 507, 6-(5-(difluoro-methyl)-1,3,4-oxadiazol-2-yl)-2-((3R,4R)-1-((1-fluorocyclo-propyl)carbonyl)-3-(4-fluoro-phenyl)piperidin-4-yl)isoindolin-1-one], the inhibition at 10 µM is 100%.
The same measure, in the same setting: as for `CC(=O)N1CC[C@@H](N2Cc3ccc(-c4nnc(C(F)F)o4)cc3C2=O)[C@H](c2ccc(F)cc2)C1` [Example 509, 2-((3R,4R)-1-acetyl-3-(4-fluorophenyl)piperidin-4-yl)-6-(5-(difluoro-methyl)-1,3,4-oxadiazol-2-yl) isoindolin-1-one], the figure is 99%.
